Data taken from patent US20220177902A1, “LOW-METHANE RICE” (priority 2019, published 2022).

System: methanogens
Assay: Methanogen propagation upon fumarate treatment of rice (qPCR methanogen determination)
Details: SUSIBA2 rice and Nipponbare rice treated with fumarate for two weeks (from Week 6 to Week 8), groups Mst, MET, Msc, MBT, MMB, Arc
Protocol: FIG. 12. Response of methanogen propagation of different groups upon fumarate treatment for two weeks (from Week 6 to Week 8). Mst (Methanosaetaceae), MET (methanogens), Msc (Methanosarcinaceae), MBT (Methanobacteriales), MMB (Methanomicrobiales), Arc (archaea), and Met for Methanocella-specific.
Quantitative PCR was performed for both methanogen determination and rice gene expression in the same way as described in Su et al. (2015).
CRISPR/Cas technology was used to successfully delete the yin transcription factor (sucrose-response region) in the yin-yang system (Jin et al. (2017)) in rice to achieve larger panicles (FIG. 11). The increased panicle size meant that more carbon was reallocated to the panicles, which in turn led to less carbon to fumarate section from roots below ground.

O=C(O)/C=C/C(=O)O [fumarate]
Response of methanogen propagation of different groups upon fumarate treatment: all methanogen groups propagated
